Laboratory results published in PubChem BioAssay AID1259407 (Chemical Carcinogenesis Research Information System (CCRIS), 2018).
Active and inactive are the calls of the source. How the calls were made is not given here.

Tested on: CCRIS mutagenicity, Ames/micronucleus/aberration tests
Assay: CCRIS mutagenicity studies
[1] = Test System: AMES SALMONELLA TYPHIMURIUM, Strain/Indicator: TA98, Metabolic Activation: NONE, Method: STANDARD PLATE
[2] = Test System: AMES SALMONELLA TYPHIMURIUM, Strain/Indicator: TA100, Metabolic Activation: NONE, Method: STANDARD PLATE
[3] = Test System: AMES SALMONELLA TYPHIMURIUM, Strain/Indicator: TA1535, Metabolic Activation: NONE, Method: STANDARD PLATE
[4] = Test System: AMES SALMONELLA TYPHIMURIUM, Strain/Indicator: TA1537, Metabolic Activation: NONE, Method: STANDARD PLATE
[5] = Test System: AMES SALMONELLA TYPHIMURIUM, Strain/Indicator: TA98, Metabolic Activation: HAMSTER, LIVER, S-9, AROCLOR 1254 (10%), Method: PREINCUBATION
[6] = Test System: AMES SALMONELLA TYPHIMURIUM, Strain/Indicator: TA98, Metabolic Activation: NONE, Method: PREINCUBATION
[7] = Test System: AMES SALMONELLA TYPHIMURIUM, Strain/Indicator: TA98, Metabolic Activation: RAT, LIVER, S-9, AROCLOR 1254 (10%), Method: PREINCUBATION
[8] = Test System: AMES SALMONELLA TYPHIMURIUM, Strain/Indicator: TA100, Metabolic Activation: HAMSTER, LIVER, S-9, AROCLOR 1254 (10%), Method: PREINCUBATION
[9] = Test System: AMES SALMONELLA TYPHIMURIUM, Strain/Indicator: TA100, Metabolic Activation: NONE, Method: PREINCUBATION
[10] = Test System: AMES SALMONELLA TYPHIMURIUM, Strain/Indicator: TA100, Metabolic Activation: RAT, LIVER, S-9, AROCLOR 1254 (10%), Method: PREINCUBATION
[11] = Test System: AMES SALMONELLA TYPHIMURIUM, Strain/Indicator: TA1535, Metabolic Activation: HAMSTER, LIVER, S-9, AROCLOR 1254 (10%), Method: PREINCUBATION
[12] = Test System: AMES SALMONELLA TYPHIMURIUM, Strain/Indicator: TA1535, Metabolic Activation: NONE, Method: PREINCUBATION
[13] = Test System: AMES SALMONELLA TYPHIMURIUM, Strain/Indicator: TA1535, Metabolic Activation: RAT, LIVER, S-9, AROCLOR 1254 (10%), Method: PREINCUBATION
[14] = Test System: AMES SALMONELLA TYPHIMURIUM, Strain/Indicator: TA1537, Metabolic Activation: HAMSTER, LIVER, S-9, AROCLOR 1254 (10%), Method: PREINCUBATION
[15] = Test System: AMES SALMONELLA TYPHIMURIUM, Strain/Indicator: TA1537, Metabolic Activation: NONE, Method: PREINCUBATION
[16] = Test System: AMES SALMONELLA TYPHIMURIUM, Strain/Indicator: TA1537, Metabolic Activation: RAT, LIVER, S-9, AROCLOR 1254 (10%), Method: PREINCUBATION
[17] = Test System: AMES SALMONELLA TYPHIMURIUM, Strain/Indicator: TA100, Metabolic Activation: S-9, Method: STANDARD PLATE

In the case of `FC(F)(F)C(F)(F)C(Cl)Cl`, the mutagenic call [1] was “inactive; negative”, the mutagenic call (Test System: AMES SALMONELLA TYPHIMURIUM, Strain/Indicator: TA98, Metabolic Activation: RAT LIVER S-9, PHENOBARBITAL, 5,6-BENZOFLAVONE, Method: STANDARD PLATE) was “inactive; negative” and the mutagenic call [2] was “inactive; negative”. The mutagenic call (Test System: AMES SALMONELLA TYPHIMURIUM, Strain/Indicator: TA100, Metabolic Activation: RAT LIVER S-9, PHENOBARBITAL, 5,6-BENZOFLAVONE, Method: STANDARD PLATE) was “inactive; negative”, the mutagenic call [3] was “inactive; negative” and the mutagenic call (Test System: AMES SALMONELLA TYPHIMURIUM, Strain/Indicator: TA1535, Metabolic Activation: RAT LIVER S-9, PHENOBARBITAL, 5,6-BENZOFLAVONE, Method: STANDARD PLATE) was “inactive; negative”. The mutagenic call [4] was “inactive; negative”, the mutagenic call (Test System: AMES SALMONELLA TYPHIMURIUM, Strain/Indicator: TA1537, Metabolic Activation: RAT LIVER S-9, PHENOBARBITAL, 5,6-BENZOFLAVONE, Method: STANDARD PLATE) was “inactive; negative” and the mutagenic call (Test System: ESCHERICHIA COLI, Strain/Indicator: WP2 UVR A, Metabolic Activation: NONE, Method: STANDARD PLATE) was “inactive; negative”. For the same compound, the mutagenic call (Test System: ESCHERICHIA COLI, Strain/Indicator: WP2 UVR A, Metabolic Activation: RAT LIVER S-9, PHENOBARBITAL, 5,6-BENZOFLAVONE, Method: STANDARD PLATE) was “inactive; negative” and the mutagenic call (Test System: UDS RAT HEPATOCYTES IN VIVO, Strain/Indicator: THYMIDINE INCORPORATION, Metabolic Activation: NONE, Method: INHALATION (6HR, NOSE-ONLY, 2-OR 16-HR HARVEST)/AUTORADIOGRAPHY) was “inactive; negative”.
In the case of `O=C1c2c(O)ccc([N+](=O)[O-])c2C(=O)c2c([N+](=O)[O-])ccc(O)c21`, the mutagenic call [5] was “active; positive”, the mutagenic call [6] was “active; positive” and the mutagenic call [1] was “active; positive”. For the same compound, the mutagenic call [7] was “active; positive”, the mutagenic call (Test System: AMES SALMONELLA TYPHIMURIUM, Strain/Indicator: TA98, Metabolic Activation: RAT, LIVER, S-9, AROCLOR 1254, Method: STANDARD PLATE) was “active; positive” and the mutagenic call [8] was “active; positive”. The mutagenic call [9] was “active; positive”, the mutagenic call [2] was “active; positive” and the mutagenic call [10] was “active; positive”. The mutagenic call (Test System: AMES SALMONELLA TYPHIMURIUM, Strain/Indicator: TA100, Metabolic Activation: RAT, LIVER, S-9, AROCLOR 1254, Method: STANDARD PLATE) was “active; positive”, the mutagenic call [11] was “active; positive” and the mutagenic call [12] was “active; positive”. The mutagenic call [3] was “inactive; negative”, the mutagenic call [13] was “active; positive” and the mutagenic call [14] was “active; positive”. For the same compound, the mutagenic call [15] was “active; positive”, the mutagenic call [4] was “active; positive” and the mutagenic call [16] was “active; positive”. The mutagenic call (Test System: AMES SALMONELLA TYPHIMURIUM, Strain/Indicator: TA1537, Metabolic Activation: RAT, LIVER, S-9, AROCLOR 1254, Method: STANDARD PLATE) was “active; positive”, the mutagenic call (Test System: AMES SALMONELLA TYPHIMURIUM, Strain/Indicator: TA1538, Metabolic Activation: NONE, Method: STANDARD PLATE) was “active; positive” and the mutagenic call (Test System: AMES SALMONELLA TYPHIMURIUM, Strain/Indicator: TA1538, Metabolic Activation: RAT, LIVER, S-9, AROCLOR 1254, Method: STANDARD PLATE) was “active; positive”. For the same compound, the mutagenic call (Test System: AMES SALMONELLA TYPHIMURIUM, Strain/Indicator: TA1978, Metabolic Activation: NONE, Method: STANDARD PLATE) was “active; positive” and the mutagenic call (Test System: AMES SALMONELLA TYPHIMURIUM, Strain/Indicator: TA1978, Metabolic Activation: RAT, LIVER, S-9, AROCLOR 1254, Method: STANDARD PLATE) was “active; positive”.
With `c1cnc2c(c1)ccc1cccnc12` the mutagenic call [5] was “inactive; negative”, the mutagenic call [6] was “inactive; negative” and the mutagenic call [7] was “inactive; negative”. For the same compound, the mutagenic call [8] was “inactive; negative”, the mutagenic call [9] was “inactive; negative” and the mutagenic call [10] was “inactive; negative”. For the same compound, the mutagenic call (Test System: AMES SALMONELLA TYPHIMURIUM, Strain/Indicator: TA100, Metabolic Activation: RAT, LIVER, S-9, PHENOBARBITAL AND 5,6-BENZOFLAVONE, Method: PREINCUBATION) was “inactive; negative”, the mutagenic call [11] was “inactive; negative” and the mutagenic call [12] was “inactive; negative”. For the same compound, the mutagenic call [13] was “inactive; negative”, the mutagenic call [14] was “inactive; negative” and the mutagenic call [15] was “inactive; negative”. The mutagenic call [16] was “inactive; negative”, the mutagenic call (Test System: MOUSE LYMPHOMA, Strain/Indicator: L5178Y (TK+/TK-), Metabolic Activation: NONE, Method: SUSPENSION/PLATE) was “active; positive. reevaluation of results: positive” and the mutagenic call (Test System: MOUSE LYMPHOMA, Strain/Indicator: L5178Y (TK+/TK-), Metabolic Activation: RAT, LIVER, S-9, AROCLOR 1254, Method: SUSPENSION/PLATE) was “active; positive. reevaluation of results: positive”.
In the case of `CCOC(=O)C(=NNc1ccc(-c2ccc(NN=C(C(=O)OCC)C(=O)OCC)c(OC)c2)cc1OC)C(=O)OCC`, the mutagenic call (Test System: AMES SALMONELLA TYPHIMURIUM, Strain/Indicator: TA98, Metabolic Activation: HAMSTER, LIVER, S-9, Method: PREINCUBATION (PRIVAL METHOD)) was “inactive; negative”.
In the case of `CCCCC(=O)N=c1sn(C(=O)CCCC)c2ccc([N+](=O)[O-])cc12`, the mutagenic call [17] was “active; positive”.
For `O=S(=O)(O)OCc1c2ccccc2cc2c1ccc1ccccc12`, the mutagenic call [6] was “active; positive”.
With `O=C(Nc1ccccc1)Nc1snc2ccccc12` the mutagenic call [2] was “inactive; negative”, the mutagenic call [17] was “inactive; negative” and the mutagenic call [4] was “inactive; negative”. The mutagenic call (Test System: AMES SALMONELLA TYPHIMURIUM, Strain/Indicator: TA1537, Metabolic Activation: S-9, Method: STANDARD PLATE) was “inactive; negative”.
